Experimental data taken from ChEMBL document CHEMBL3822449, “[Dmt(1)]DALDA analogues modified with tyrosine analogues at position 1” (Bioorg Med Chem Lett, 2016).

How the values were obtained:
[1] = Antioxidant activity assessed as DPPH radical scavenging activity incubated for 30 mins; assay type: physicochemical; conditions: 0.5 h
[2] = molecular target: Delta-type opioid receptor (Mus musculus, UniProt P32300); assay: Agonist activity at delta opioid receptor in albino mouse vas deferens assessed as inhibition of electrically-stimulated muscle contraction; assay type: tissue-based
Chain of Delta-type opioid receptor (P32300 whole entry): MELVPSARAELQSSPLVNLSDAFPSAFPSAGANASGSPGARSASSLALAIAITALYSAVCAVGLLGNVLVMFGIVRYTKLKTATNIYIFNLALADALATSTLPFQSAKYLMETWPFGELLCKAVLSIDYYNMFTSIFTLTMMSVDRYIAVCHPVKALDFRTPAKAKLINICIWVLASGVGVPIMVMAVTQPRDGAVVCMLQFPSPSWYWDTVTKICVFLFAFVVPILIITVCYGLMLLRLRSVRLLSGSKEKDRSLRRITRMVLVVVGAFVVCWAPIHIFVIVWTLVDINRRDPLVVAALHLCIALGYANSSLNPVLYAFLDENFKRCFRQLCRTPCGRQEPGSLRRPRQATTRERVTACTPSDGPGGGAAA

SMILES	Activity [1]	IC50 [2]
Cc1cc(O)cc(C)c1C[C@H](N)C(=O)N[C@H](CCCNC(=N)N)C(=O)N[C@@H](Cc1ccccc1)C(=O)N[C@@H](CCCCN)C(N)=O	31.64%	–
NCCCC[C@H](NC(=O)[C@H](Cc1ccccc1)NC(=O)[C@@H](CCCN=C(N)N)NC(=O)[C@@H](N)Cc1ccc(O)cc1)C(N)=O	–	0.781 µM
